Drawing on ChEMBL document CHEMBL1909526, “Berkeleyones and related meroterpenes from a deep water acid mine waste fungus that inhibit the production of interleukin 1-β from induced inflammasomes” (J Nat Prod, 2011), this text covers inhibition for seven molecules.

The first experiment has as its target T1, Caspase-1 (Homo sapiens) (UniProt P29466).
T1 sequence (whole entry): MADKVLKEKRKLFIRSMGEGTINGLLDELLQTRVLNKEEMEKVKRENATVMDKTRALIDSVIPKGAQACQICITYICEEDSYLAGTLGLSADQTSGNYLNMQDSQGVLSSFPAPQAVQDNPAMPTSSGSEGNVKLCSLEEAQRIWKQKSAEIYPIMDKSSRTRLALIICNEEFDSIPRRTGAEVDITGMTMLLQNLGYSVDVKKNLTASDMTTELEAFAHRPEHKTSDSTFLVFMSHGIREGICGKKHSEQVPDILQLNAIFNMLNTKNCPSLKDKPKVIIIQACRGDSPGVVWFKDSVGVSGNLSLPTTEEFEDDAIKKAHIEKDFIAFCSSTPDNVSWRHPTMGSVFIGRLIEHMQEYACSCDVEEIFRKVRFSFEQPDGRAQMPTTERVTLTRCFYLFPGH
The experiment can be described thus: Inhibition of caspase1 in differentiated human THP-1 cells at 0.0005 ug/ml after 24 hrs by fluorometric assay. The experiment is classed as cell-based.
As a reminder, the inhibition is the drop in the measured response relative to a control, in per cent. High values mean a strong effect, low ones a weak effect. Turning to `CC(=O)N[C@@H](Cc1ccc(O)cc1)C(=O)N[C@H](C(=O)N[C@@H](C)C(=O)N[C@H](C=O)CC(=O)O)C(C)C`, the inhibition came out at 100%.

In a further experiment the target is T1, Caspase-1 (Homo sapiens). The experiment can be described thus: Inhibition of caspase1 in differentiated human THP-1 cells at 100 ug/ml after 24 hrs by fluorometric assay. The experiment is classed as cell-based.
For the molecule `C=C1[C@@]2(C)C[C@H]3[C@]4(C)CCC(=O)C(C)(C)[C@H]4CC[C@]3(C)[C@]1(C(=O)OC)C(=O)[C@@](C)(O)C2=O`, the inhibition amounted to 97%.
On the same count and under the same terms, in the case of `C=C1[C@@]2(C)C[C@@H]3[C@](C)(CC=C4C(C)(C)OC(=O)CC[C@]43C)[C@]1(C(=O)OC)C(=O)[C@@](C)(O)C2=O` it was 100%.
In turn, `C=C(C)C1=CC[C@@]2(C)[C@@H](C[C@]3(C)C(=C)[C@@]2(C(=O)OC)C(=O)[C@@](C)(O)C3=O)[C@]1(C)CCC(=O)O` came in with an inhibition of 0%.
For `C=C1[C@@]2(C)C[C@H]3[C@]4(C)CCC(=O)OC(C)(C)[C@@H]4CC[C@]3(C)[C@]1(C(=O)OC)C(=O)[C@@](C)(O)C2=O`, the inhibition was 77%.
Still for that read-out and setting: in the case of `C=C1[C@@]2(C)C[C@H]3C(C)=C4CC(=O)OC(C)(C)C4=CC[C@]3(C)[C@]1(C(=O)OC)C(=O)[C@@](C)(O)C2=O` it was 89%; in that of `C=C1[C@@]2(C)C[C@H]3[C@]4(C)CC[C@@H](O)C(C)(C)[C@H]4CC[C@]3(C)[C@]1(C(=O)OC)C(=O)[C@@](C)(O)C2=O`, 68%.
